# Results taken from patent US8168672B2, “Thioamide derivatives as progesterone receptor modulators” (Wyeth, priority 2004, dated 2012).
# “And” between values parts separate entries of the source, which are not always exact repeats. Equal values may be shown once.
# What was measured:
# [1] = test system: alkaline phosphatase activity in T47D cells; assay: T47D cytosol alkaline phosphatase assay (progestin/agonist mode); assay type: cell-based; conditions: Homo sapiens, 24 hours treatment; for Emax: agonist mode, read-out: % Efficacy; for EC50: T47D, 24 h, test compounds
# Procedure: 5-(4,4-dimethyl-2-thioxo-1,4-dihydro-2H-3,1-benzoxazin-6-yl)-1-methyl-1H-pyrrole-2-carbothioamide (1) and 5-(4,4-dimethyl-2-oxo-1,4-dihydro-2H-3,1-benzoxazin-6-yl)-1-methyl-1H-pyrrole-2-carbothioamide (2) were tested in a T47D cytosol alkaline phosphatase assay (Table 1). The purpose of this functional assay was to identify progestins or antiprogestins by determining the compound's effect on alkaline phosphatase activity in T47D cells.
# (i) Culture Medium: • DMEM:F12 (1:1) (GIBCO, BRL) supplemented with 5% (v/v) charcoal stripped fetal bovine serum (not heat-inactivated), 100 U/mL penicillin, 100 μg/mL streptomycin, and 2 mM the GlutaMax™ reagent (GIBCO, BRL).
# (ii) Alkaline Phosphatase Assay Buffer: • I. 0.1 M Tris-HCl, pH 9.8, containing 0.2% the Triton™ reagent X-100 • II. 0.1 M Tris-HCl, pH 9.8 containing 4 mM p-nitrophenyl phosphate (Sigma).
# (iii) Cell Culture and Treatment: • Frozen T47D cells were thawed in a 37° C. water bath and diluted to 280,000 cells/mL in culture medium. To each well in a 96-well plate (Falcon, Becton Dickinson Labware), 180 μL of diluted cell suspension was added. Twenty μL of reference or test compounds diluted in the culture medium was then added to each well. When testing for progestin antagonist activity, reference antiprogestins or test compounds were added in the presence of 1 nM progesterone. The cells were incubated at 37° C. in a 5% CO2/humidified atmosphere for 24 hours.
# (iv) Alkaline Phosphatase Enzyme Assay: • At the end of treatment, the medium was removed from the plate and 50 μL of assay buffer I was added to each well. The plates were shaken in a titer plate shaker for 15 minutes. Then 150 μL of assay buffer II was added to each well. Optical density measurements were taken at 5 minute intervals for 30 minutes at a test wavelength of 405 nm.
# (v) Analysis of Results: • Analysis of dose-response data: For reference and test compounds, a dose response curve is generated for dose (X-axis) vs. the rate of enzyme reaction (slope) (Y-axis). Square root-transformed data are used for analysis of variance and nonlinear dose response curve fitting for both agonist and antagonist modes. Huber weighting is used to downweight the effects of outliers. EC50 or IC50 values are calculated from the retransformed values. JMP software (SAS Institute, Inc.) is used for both one-way analysis of variance and non-linear dose response analyses in both single dose and dose response studies.
# (vi) Reference Compounds: • Progesterone and trimegestone are reference progestins and RU486 was the reference antiprogestin. All reference compounds are run in full dose response curves and the EC50 or IC50 values calculated.
# [2] = Solubility in dimethylsulfoxide (observation during characterisation); assay type: physicochemical
# Procedure: A 5-L round-bottomed flask equipped with a mechanical stirrer and a reflux condenser was charged with the isolated solid (16.5 g) and acetone (2700 mL) was added in portions via the condenser while the suspension was heated to reflux. The reflux condenser was replaced with a regular one and acetone was distilled off. After distilling 2130 mL of acetone, the formed slurry was cooled to room temperature, stirred overnight, and filtered on a sintered-glass funnel to give a dark-yellow, crystalline, sandy solid. The filtered solid was dried at 40° C. in vacuo to give 12.5 g (76% recrystallization yield; 38% total yield) of 5-(4,4-dimethyl-2-thioxo-1,4-dihydro-2H-3,1-benzoxazin-6-yl)-1-methyl-1H-pyrrole-2-carbothioamide. LC purity: 95.94%; 1.65% NSP-989; rrt 0.88. LC-MS: 331 (M^+); impurity 297 (NSP-989). Mp: particles of various shapes; small particles melted 210-215° C.; next 218-220° C.; final melt 223-226° C. IR (KBr, cm^−1): 3375, 3269, 3165, 2211, 1624, 1610, 1540, 1526, 1466, 1370, 1294, 1261, 1186, 1114, 1086, 959, 880, 822, 779. ^1H NMR (DMSO-d6, ppm): 12.28 (s, 1H), 9.22 (s, 1H, S═CNH2), 8.97 (s, 1H, S═CNH2), 7.41 (d, 1H, J=7.05 Hz), 7.40 (s, 1H), 7.12 (d, 1H, J=8.85 Hz), 6.72 (d, 1H, J=3.9 Hz), 6.23 (d, 1H, J=3.9 Hz), 3.83 (s, 3H), 1.68 (s, 6H).
# [3] = test system: alkaline phosphatase activity in T47D cells; assay: T47D alkaline phosphatase assay (antiprogestin/antagonist mode, in the presence of 1 nM progesterone); assay type: cell-based; conditions: Homo sapiens, reference antiprogestin, three independent experiments (Exp 1-3), read-out: Estimated IC50
# Procedure: 0.1 M Tris-HCl, pH 9.8 containing 4 mM p-nitrophenyl phosphate (Sigma). […] To each well in a 96-well plate (Falcon, Becton Dickinson Labware), 180 μL of diluted cell suspension was added. Twenty μL of reference or test compounds diluted in the culture medium was then added to each well. When testing for progestin antagonist activity, reference antiprogestins or test compounds were added in the presence of 1 nM progesterone. The cells were incubated at 37° C. in a 5% CO2/humidified atmosphere for 24 hours. […] The plates were shaken in a titer plate shaker for 15 minutes. Then 150 μL of assay buffer II was added to each well. […] Square root-transformed data are used for analysis of variance and nonlinear dose response curve fitting for both agonist and antagonist modes. Huber weighting is used to downweight the effects of outliers. EC50 or IC50 values are calculated from the retransformed values.
EC50 [1] [nM],Solubility in dimethylsulfoxide (DMSO) [2],IC50 [3],Structure (SMILES),Emax [1] [%]
0.2,sparingly soluble,–,"Cn1c(C(N)=S)ccc1-c1ccc2c(c1)C(C)(C)OC(=S)N2 [Compound 1, 5-(4,4-dimethyl-2-thioxo-1,4-dihydro-2H-3,1-benzoxazin-6-yl)-1-methyl-1H-pyrrole-2-carbothioamide]",60
1.9,–,–,"Cn1c(C(N)=S)ccc1-c1ccc2c(c1)C(C)(C)OC(=O)N2 [Compound 2, 5-(4,4-dimethyl-2-oxo-1,4-dihydro-2H-3,1-benzoxazin-6-yl)-1-methyl-1H-pyrrole-2-carbothioamide]",72
–,–,0.103 nM and 0.12 nM,CC#C[C@]1(O)CC[C@H]2[C@@H]3CCC4=CC(=O)CCC4=C3[C@@H](c3ccc(N(C)C)cc3)C[C@@]21C [RU486],–
